Measurements as given in patent US8129371B2, “Thienopyrimidine and pyrazolopyrimidine compounds and their use as mTOR kinase and PI3 kinase inhibitors” (Wyeth LLC, priority 2007, dated 2012).
Like-named read-outs stand apart in the source and are kept apart here.

Tests used:
PI3K [1] = molecular target: T1, PI3K (Homo sapiens, UniProt P48736); assay: Fluorescence polarization assay for PI3K; assay type: biochemical; conditions: read-out: PI3 Kinase γ IC50
T1 construct: PI3 Kinase γ IC50; other: PI3 Kinase γ; other: PI3 Kinase γ isoform, fluorescence polarization
Outline: (§1)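 Fluorescence-polarization competition readout: after 30–60 min of PIP2/ATP turnover in 1% DMSO, a stop mix with GST-GRP (70 nM) and red probe (10 nM) was added.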

PI3K [2] = molecular target: T2, PI3K (Homo sapiens, UniProt P42336); assay: Fluorescence polarization assay for PI3K; assay type: biochemical; conditions: read-out: PI3 Kinase α IC50
T2 construct: PI3 Kinase α IC50; other: PI3 Kinase α; other: PI3 Kinase α isoform, fluorescence polarization
Outline: as §1

prostate line LNCap = assay: In vitro cell culture growth assay (MTS), LNCap; assay type: cell-based; conditions: Homo sapiens, LNCaP, 72 h, LNCap cells, three days after drug treatment
Outline: (§2)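 The readout was MTS dye metabolism at 490 nm, taken after 3-day drug exposure that began the day after seeding. Growth was expressed as percent of vehicle-treated wells in the same plate.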

Human mTOR (FLAG-TOR) = molecular target: T3, Human mTOR (FLAG-TOR) (Homo sapiens, UniProt P42345); assay: Human mTOR kinase assay with purified enzyme, DELFIA format; assay type: biochemical
T3 construct: FLAG
Outline: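 DELFIA readout: Eu-anti-P(T389)-S6K antibody (40 ng/mL, 1 h) on captured His6-S6K from the stopped reaction. Kinase step used purified FLAG-tagged human mTOR with test compound in HEPES (pH 7.4)/MnCl2/DTT buffer, 2 h at room temperature (linear 1–6 h), terminated by EDTA/EGTA.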

breast line MDA468 = assay: In vitro cell culture growth assay (MTS), MDA468; assay type: cell-based; conditions: Homo sapiens, 72 h, MDA468 cells, three days after drug treatment
Outline: as §2

[3] = PI3 Kinase γ isoform, fluorescence polarization
[4] = PI3 Kinase α isoform, fluorescence polarization
[5] = purified human mTOR enzyme, DELFIA format

T1 sequence (P48736 whole entry, canonical isoform): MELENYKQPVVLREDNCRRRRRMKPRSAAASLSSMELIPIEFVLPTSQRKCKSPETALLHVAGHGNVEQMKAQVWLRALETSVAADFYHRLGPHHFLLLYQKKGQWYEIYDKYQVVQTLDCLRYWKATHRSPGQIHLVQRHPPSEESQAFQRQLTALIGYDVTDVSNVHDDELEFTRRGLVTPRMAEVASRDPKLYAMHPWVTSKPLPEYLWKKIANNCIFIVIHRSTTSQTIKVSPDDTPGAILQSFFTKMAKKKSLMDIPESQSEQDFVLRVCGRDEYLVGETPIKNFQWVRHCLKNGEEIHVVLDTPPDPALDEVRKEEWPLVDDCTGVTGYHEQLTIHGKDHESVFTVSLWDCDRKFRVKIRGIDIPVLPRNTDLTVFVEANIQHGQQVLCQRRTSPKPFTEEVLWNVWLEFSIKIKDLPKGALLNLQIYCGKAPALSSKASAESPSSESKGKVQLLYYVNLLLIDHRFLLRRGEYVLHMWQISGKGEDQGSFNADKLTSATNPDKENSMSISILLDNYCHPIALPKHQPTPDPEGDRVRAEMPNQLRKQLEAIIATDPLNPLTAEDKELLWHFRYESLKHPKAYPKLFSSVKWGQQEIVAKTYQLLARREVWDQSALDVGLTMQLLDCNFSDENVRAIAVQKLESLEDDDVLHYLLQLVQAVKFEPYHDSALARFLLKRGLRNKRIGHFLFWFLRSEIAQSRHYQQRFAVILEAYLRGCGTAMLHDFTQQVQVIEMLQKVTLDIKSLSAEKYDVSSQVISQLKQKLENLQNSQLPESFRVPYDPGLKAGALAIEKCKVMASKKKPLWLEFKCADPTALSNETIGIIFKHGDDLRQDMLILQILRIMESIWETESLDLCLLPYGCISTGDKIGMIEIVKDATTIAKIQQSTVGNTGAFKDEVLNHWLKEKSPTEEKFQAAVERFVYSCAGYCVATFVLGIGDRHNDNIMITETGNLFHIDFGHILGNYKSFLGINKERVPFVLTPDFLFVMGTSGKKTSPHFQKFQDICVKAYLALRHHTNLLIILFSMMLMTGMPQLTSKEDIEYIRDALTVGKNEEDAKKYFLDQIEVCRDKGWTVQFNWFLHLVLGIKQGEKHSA
T2 sequence (P42336 whole entry, canonical isoform): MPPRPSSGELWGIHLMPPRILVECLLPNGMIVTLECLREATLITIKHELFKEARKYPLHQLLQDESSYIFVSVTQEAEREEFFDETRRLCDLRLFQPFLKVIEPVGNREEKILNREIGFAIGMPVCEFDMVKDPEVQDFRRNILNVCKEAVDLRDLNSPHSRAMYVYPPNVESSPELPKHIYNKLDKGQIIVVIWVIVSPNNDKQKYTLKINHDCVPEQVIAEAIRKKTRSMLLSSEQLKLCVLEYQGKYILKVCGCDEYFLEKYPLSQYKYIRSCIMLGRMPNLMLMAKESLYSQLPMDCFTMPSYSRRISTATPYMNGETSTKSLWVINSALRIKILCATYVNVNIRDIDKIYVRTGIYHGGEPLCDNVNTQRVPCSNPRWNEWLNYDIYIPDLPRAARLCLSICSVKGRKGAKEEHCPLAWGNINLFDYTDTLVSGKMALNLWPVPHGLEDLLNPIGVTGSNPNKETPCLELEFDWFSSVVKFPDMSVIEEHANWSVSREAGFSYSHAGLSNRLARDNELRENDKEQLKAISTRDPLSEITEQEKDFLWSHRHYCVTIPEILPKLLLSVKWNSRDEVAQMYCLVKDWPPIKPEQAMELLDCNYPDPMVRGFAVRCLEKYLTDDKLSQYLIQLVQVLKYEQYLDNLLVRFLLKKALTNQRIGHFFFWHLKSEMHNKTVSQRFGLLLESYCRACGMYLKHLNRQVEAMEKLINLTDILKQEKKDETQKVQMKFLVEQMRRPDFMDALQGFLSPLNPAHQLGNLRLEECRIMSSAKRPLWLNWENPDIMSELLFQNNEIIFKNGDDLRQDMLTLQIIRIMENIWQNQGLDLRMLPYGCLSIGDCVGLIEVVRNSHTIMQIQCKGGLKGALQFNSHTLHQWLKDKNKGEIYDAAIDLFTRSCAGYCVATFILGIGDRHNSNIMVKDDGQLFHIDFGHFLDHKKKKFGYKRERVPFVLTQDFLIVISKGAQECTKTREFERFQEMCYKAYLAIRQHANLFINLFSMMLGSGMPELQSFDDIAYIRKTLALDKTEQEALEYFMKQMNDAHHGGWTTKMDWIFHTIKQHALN

IC50 (PI3K [1]; PI3 Kinase γ)	IC50 (PI3K [2]; PI3 Kinase α)	IC50 (prostate line LNCap)	IC50 (Human mTOR (FLAG-TOR))	Compound	IC50 (breast line MDA468)	IC50 (PI3K [1]; [3])	IC50 (PI3K [2]; [4])	IC50 (Human mTOR (FLAG-TOR); [5])
> 10000 nM	2280 nM	4 nM	0.31 nM	CCNC(=O)Nc1ccc(-c2nc(N3CC4CCC(C3)O4)c3cnn(C4CCN(Cc5cccnc5)CC4)c3n2)cc1 [Example 15, 1-ethyl-3-(4-{4-(8-oxa-3-azabicyclo[3.2.1]oct-3-yl)-1-[1-(pyridin-3-ylmethyl)piperidin-4-yl]-1H-pyrazolo[3,4-d]pyrimidin-6-yl}phenyl)urea]	85 nM	–	–	–
–	–	1 nM	–	O=C(Nc1ccc(-c2nc(N3CC4CCC(C3)O4)c3cnn(C4CCC5(CCCO5)CC4)c3n2)cc1)Nc1ccc(N2CCNCC2)cc1 (single isomer, unassigned) [Example 314, 1-(4-{4-(8-oxa-3-azabicyclo[3.2.1]oct-3-yl)-1-[(5r,8r)-1-oxaspiro[4.5]dec-8-yl]-1H-pyrazolo[3,4-d]pyrimidin-6-yl}phenyl)-3-(4-piperazin-1-ylphenyl)urea]	15 nM	2020 nM	511 nM	0.455 nM
1120 nM	307 nM	700 nM	99 nM	CN(C)CCNC(=O)Nc1ccc(-c2nc(N3CC4CCC(C3)O4)c3cnn(C)c3n2)cc1 [Example 58, 1-[2-(dimethylamino)ethyl]-3-{4-[1-methyl-4-(8-oxa-3-azabicyclo[3.2.1]oct-3-yl)-1H-pyrazolo[3,4-d]pyrimidin-6-yl]phenyl}urea]	2800 nM	–	–	–
952 nM	34 nM	< 1 nM	0.086 nM	O=C(Nc1ccc(CO)cc1)Nc1ccc(-c2nc(N3CC4CCC(C3)O4)c3cnn(CCF)c3n2)cc1 [Example 250, 1-{4-[1-(2-fluoroethyl)-4-(8-oxa-3-azabicyclo[3.2.1]oct-3-yl)-1H-pyrazolo[3,4-d]pyrimidin-6-yl]phenyl}-3-[4-(hydroxymethyl)phenyl]urea]	4 nM	–	–	–
> 10000 nM	3750 nM	< 27 nM	0.38 nM	CCNC(=O)Nc1ccc(-c2nc(N3CC4CCC(C3)O4)c3cnn(CC(F)(F)F)c3n2)cc1 [Example 3, 1-ethyl-3-{4-[4-(8-oxa-3-azabicyclo[3.2.1]oct-3-yl)-1-(2,2,2-trifluoroethyl)-1H-pyrazolo[3,4-d]pyrimidin-6-yl]phenyl}urea]	< 27 nM	–	–	–
–	–	< 1 nM	–	O=C(Nc1ccc(CCO)cc1)Nc1ccc(-c2nc(N3C[C@@H]4C[C@H]3CO4)c3cnn(CC(F)(F)F)c3n2)cc1 [Example 297, 1-[4-(2-hydroxyethyl)phenyl]-3-(4-{4-[(1S,4S)-2-oxa-5-azabicyclo[2.2.1]hept-5-yl]-1-(2,2,2-trifluoroethyl)-1H-pyrazolo[3,4-d]pyrimidin-6-yl}phenyl)urea]	4 nM	3580 nM	275 nM	0.55 nM
2160 nM	44 nM	1 nM	0.215 nM	O=C(Nc1ccc(CCO)cc1)Nc1ccc(-c2nc(N3CC4CCC(C3)O4)c3cnn(CCO)c3n2)cc1 [Example 202, 1-{4-[1-(2-hydroxyethyl)-4-(8-oxa-3-azabicyclo[3.2.1]oct-3-yl)-1H-pyrazolo[3,4-d]pyrimidin-6-yl]phenyl}-3-[4-(2-hydroxyethyl)phenyl]urea]	4 nM	–	–	–
2610 nM	314 nM	< 0.8 nM	0.12 nM	CCOC(=O)N1CCC(n2ncc3c(N4CC5CCC(C4)O5)nc(-c4ccc(NC(=O)Nc5cccnc5)cc4)nc32)CC1 [Example 34, ethyl 4-[4-(8-oxa-3-azabicyclo[3.2.1]oct-3-yl)-6-{4-[(pyridin-3-ylcarbamoyl)amino]phenyl}-1H-pyrazolo[3,4-d]pyrimidin-1-yl]piperidine-1-carboxylate]	25 nM	–	–	–
> 10000 nM	1060 nM	350 nM	27 nM	CCn1ncc2c(N3CC4CCC(C3)O4)nc(-c3cccc(O)c3)nc21 [Example 75, 3-[1-ethyl-4-(8-oxa-3-azabicyclo[3.2.1]oct-3-yl)-1H-pyrazolo[3,4-d]pyrimidin-6-yl]phenol]	1300 nM	–	–	–
> 10000 nM	363 nM	8 nM	1.19 nM	CNC(=O)Nc1ccc(-c2nc(N3CC4CCC(C3)O4)c3cnn(C4CCC5(CC4)OCCCO5)c3n2)cc1 [Example 151, 1-{4-[1-(1,5-dioxaspiro[5.5]undec-9-yl)-4-(8-oxa-3-azabicyclo[3.2.1]oct-3-yl)-1H-pyrazolo[3,4-d]pyrimidin-6-yl]phenyl}-3-methylurea]	130 nM	–	–	–
5900 nM	740 nM	1 nM	0.14 nM	CCNC(=O)Nc1ccc(-c2nc(N3CC4CCC(C3)O4)c3cnn(C(C)C)c3n2)cc1 [Example 140, 1-ethyl-3-{4-[1-isopropyl-4-(8-oxa-3-azabicyclo[3.2.1]oct-3-yl)-1H-pyrazolo[3,4-d]pyrimidin-6-yl]phenyl}urea]	32 nM	–	–	–

Second part, the molecule before the results:

Compound	IC50 (PI3K [1]; PI3 Kinase γ)	IC50 (PI3K [2]; PI3 Kinase α)	IC50 (prostate line LNCap)	IC50 (Human mTOR (FLAG-TOR))	IC50 (breast line MDA468)	IC50 (PI3K [1]; [3])	IC50 (PI3K [2]; [4])	IC50 (Human mTOR (FLAG-TOR); [5])
CNC(=O)Nc1ccc(-c2nc(N3CC4CCC(C3)O4)c3cnn(C4CCN(C(=O)OC(C)C)CC4)c3n2)cc1 [Example 66, isopropyl 4-[6-{4-[(methylcarbamoyl)amino]phenyl}-4-(8-oxa-3-azabicyclo[3.2.1]oct-3-yl)-1H-pyrazolo[3,4-d]pyrimidin-1-yl]piperidine-1-carboxylate]	> 10000 nM	2020 nM	6 nM	0.22 nM	84 nM	–	–	–
COC(=O)N1CCC(n2ncc3c(N4C5CCC4COC5)nc(-c4ccc(NC(=O)Nc5ccc(CN6CCN(C)CC6)cc5)cc4)nc32)CC1 [Example 367, methyl 4-[6-{4-[({4-[(4-methylpiperazin-1-yl)methyl]phenyl}carbamoyl)amino]phenyl}-4-(3-oxa-8-azabicyclo[3.2.1]oct-8-yl)-1H-pyrazolo[3,4-d]pyrimidin-1-yl]piperidine-1-carboxylate]	–	–	1 nM	–	13 nM	1820 nM	2390 nM	0.88 nM
Oc1ccc(Nc2nc(N3CC4CCC(C3)O4)c3cnn(C4CCN(Cc5ccccc5)CC4)c3n2)cc1 [Example 30, 4-{[1-(1-benzylpiperidin-4-yl)-4-(8-oxa-3-azabicyclo[3.2.1]oct-3-yl)-1H-pyrazolo[3,4-d]pyrimidin-6-yl]amino}phenol]	> 10000 nM	2450 nM	2800 nM	260 nM	7600 nM	–	–	–
O=C1OCCN1c1ccc(-c2nc(N3CC4CCC(C3)O4)c3cnn(C4CCC5(CC4)OCCO5)c3n2)cc1 [Example 131, 3-{4-[1-(1,4-dioxaspiro[4.5]dec-8-yl)-4-(8-oxa-3-azabicyclo[3.2.1]oct-3-yl)-1H-pyrazolo[3,4-d]pyrimidin-6-yl]phenyl}-1,3-oxazolidin-2-one]	> 10000 nM	> 10000 nM	> 60000 nM	635 nM	> 60000 nM	–	–	–
O=C1CCC(n2ncc3c(N4CC5CCC(C4)O5)nc(-c4ccc(NC(=O)OCCO)cc4)nc32)CC1 [Example 211, 2-hydroxyethyl {4-[4-(8-oxa-3-azabicyclo[3.2.1]oct-3-yl)-1-(4-oxocyclohexyl)-1H-pyrazolo[3,4-d]pyrimidin-6-yl]phenyl}carbamate]	> 10000 nM	2120 nM	17 nM	0.885 nM	120 nM	–	–	–
COC(=O)N1CCC(n2ncc3c(N4C5CCC4COC5)nc(-c4ccc(NC(=O)OCCO)cc4)nc32)CC1 [Example 355, methyl 4-[6-(4-{[(2-hydroxyethoxy)carbonyl]amino}phenyl)-4-(3-oxa-8-azabicyclo[3.2.1]oct-8-yl)-1H-pyrazolo[3,4-d]pyrimidin-1-yl]piperidine-1-carboxylate]	–	–	58 nM	–	220 nM	6800 nM	7450 nM	0.775 nM
CCn1ncc2c(N3CC4CCC(C3)O4)nc(-c3ccc(NC(=O)Nc4ccc(C)cc4)cc3)nc21 [Example 189, 1-{4-[1-ethyl-4-(8-oxa-3-azabicyclo[3.2.1]oct-3-yl)-1H-pyrazolo[3,4-d]pyrimidin-6-yl]phenyl}-3-(4-methylphenyl)urea]	11000 nM	849 nM	5 nM	0.885 nM	20 nM	–	–	–
COC(=O)N1CCC(n2ncc3c(N4CC5CCC(C4)O5)nc(-c4ccc(N)cc4)nc32)CC1 [Example 120, methyl 4-[6-(4-aminophenyl)-4-(8-oxa-3-azabicyclo[3.2.1]oct-3-yl)-1H-pyrazolo[3,4-d]pyrimidin-1-yl]piperidine-1-carboxylate]	> 10000 nM	7920 nM	950 nM	69 nM	6900 nM	–	–	–
CC(C)n1ncc2c(N3CC4CCC(C3)O4)nc(-c3ccc(NC(=O)NC4CC4)cc3)nc21 [Example 142, 1-cyclopropyl-3-{4-[1-isopropyl-4-(8-oxa-3-azabicyclo[3.2.1]oct-3-yl)-1H-pyrazolo[3,4-d]pyrimidin-6-yl]phenyl}urea]	5380 nM	953 nM	1 nM	0.2 nM	48 nM	–	–	–
